# From publication PMC2924647 (The EMBO Journal, 2010)
# Where two headings read alike, the source gives them in different places.
# Legend:
# [1] = system: AC2-HA / RXFP1 signalosome; assay: AC2-HA co-immunoprecipitation from HEK293 cells co-expressing FLAG-RXFP1; settings: 5 min, n=3
# [2] = system: PDE4D3 / RXFP1 signalosome; assay: PDE4D3; settings: 5 min, n=3
# RXFP1 [3] = system: RXFP1
# tRXFP1-703 = assay: Single-cell FRET cAMP
# tRXFP1-747 = assay: Single-cell FRET cAMP; settings: tRXFP1-747, glEpac2
# RXFP1 S755A = assay: Single-cell FRET cAMP; settings: glEpac2
# RXFP1 [4] = target: T1, RXFP1 (Homo sapiens, UniProt Q9HBX9); assay: Single-cell FRET cAMP; settings: first phase, biphasic fit, 5 min AUC, glEpac2, HEK293-RXFP1; mean±s.e.m.
# T1 sequence (Q9HBX9 1-757): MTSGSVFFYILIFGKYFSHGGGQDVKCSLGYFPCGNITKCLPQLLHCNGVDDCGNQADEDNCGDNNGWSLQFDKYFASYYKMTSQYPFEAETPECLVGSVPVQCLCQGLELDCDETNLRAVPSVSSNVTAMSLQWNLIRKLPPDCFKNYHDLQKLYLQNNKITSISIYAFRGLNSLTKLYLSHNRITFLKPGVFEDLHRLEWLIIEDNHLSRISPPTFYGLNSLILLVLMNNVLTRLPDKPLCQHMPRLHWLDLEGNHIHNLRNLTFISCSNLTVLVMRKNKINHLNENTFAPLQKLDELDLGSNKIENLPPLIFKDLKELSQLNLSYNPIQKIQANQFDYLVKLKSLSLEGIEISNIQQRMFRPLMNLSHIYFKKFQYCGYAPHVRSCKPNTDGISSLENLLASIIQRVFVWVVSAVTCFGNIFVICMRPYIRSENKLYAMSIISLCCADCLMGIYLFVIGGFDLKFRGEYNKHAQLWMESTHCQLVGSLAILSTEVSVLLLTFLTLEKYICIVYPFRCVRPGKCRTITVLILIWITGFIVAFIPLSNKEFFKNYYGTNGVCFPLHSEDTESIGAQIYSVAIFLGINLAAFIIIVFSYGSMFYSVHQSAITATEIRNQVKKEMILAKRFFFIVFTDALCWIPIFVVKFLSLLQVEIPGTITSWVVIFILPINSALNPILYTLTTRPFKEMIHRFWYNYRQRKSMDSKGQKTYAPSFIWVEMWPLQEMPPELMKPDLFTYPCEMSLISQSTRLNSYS
# RXFP1 [5] = target: T1, RXFP1; assay: Single-cell FRET cAMP
# RXFP2 [6] = target: T2, RXFP2 (Homo sapiens, UniProt Q8WXD0); assay: Single-cell FRET cAMP; settings: read-out: Relaxin EC50 2; glEpac2, HEK293-RXFP2; 5 min AUC; mean±s.e.m.
# T2 sequence (Q8WXD0 whole entry, species assumed): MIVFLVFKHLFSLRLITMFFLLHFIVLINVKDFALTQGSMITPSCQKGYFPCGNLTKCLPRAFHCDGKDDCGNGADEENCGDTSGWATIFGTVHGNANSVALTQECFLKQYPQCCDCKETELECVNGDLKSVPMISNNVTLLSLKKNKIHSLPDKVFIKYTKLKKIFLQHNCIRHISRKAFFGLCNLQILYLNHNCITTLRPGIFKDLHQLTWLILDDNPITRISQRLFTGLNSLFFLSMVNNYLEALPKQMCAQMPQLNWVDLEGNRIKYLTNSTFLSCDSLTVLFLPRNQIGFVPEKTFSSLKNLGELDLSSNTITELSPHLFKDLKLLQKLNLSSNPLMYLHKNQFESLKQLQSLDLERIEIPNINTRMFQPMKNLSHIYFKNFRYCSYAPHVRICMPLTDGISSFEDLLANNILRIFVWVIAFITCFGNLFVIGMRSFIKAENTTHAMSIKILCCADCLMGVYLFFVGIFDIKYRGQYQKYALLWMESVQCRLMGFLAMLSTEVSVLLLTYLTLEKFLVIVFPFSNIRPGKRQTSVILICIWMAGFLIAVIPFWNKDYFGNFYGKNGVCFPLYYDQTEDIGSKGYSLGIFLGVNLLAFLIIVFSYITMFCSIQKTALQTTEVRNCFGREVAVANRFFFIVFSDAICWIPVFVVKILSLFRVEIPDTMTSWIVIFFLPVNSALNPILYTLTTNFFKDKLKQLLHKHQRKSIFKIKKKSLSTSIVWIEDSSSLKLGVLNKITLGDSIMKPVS
# RXFP2 [7] = target: T2, RXFP2; assay: Single-cell FRET cAMP
# RXFP1 [8] = target: T1, RXFP1; assay: Single-cell FRET cAMP; settings: HeLa, forskolin 1 μM, without PTX, glEpac2
# HEK293 cells = assay: Single-cell FRET control, HEK293 cells expressing pmEpac2 alone; settings: no RXFP1, relaxin 1 nM
# RXFP1/2 = assay: Single-cell FRET cAMP; settings: relaxin 10 aM–100 μM, RXFP1/2, pmEpac2
# RXFP2/1 = assay: Single-cell FRET cAMP
# Chain of RXFP2/1 (Q8WXD0 44-397 limits assumed, one chain of several): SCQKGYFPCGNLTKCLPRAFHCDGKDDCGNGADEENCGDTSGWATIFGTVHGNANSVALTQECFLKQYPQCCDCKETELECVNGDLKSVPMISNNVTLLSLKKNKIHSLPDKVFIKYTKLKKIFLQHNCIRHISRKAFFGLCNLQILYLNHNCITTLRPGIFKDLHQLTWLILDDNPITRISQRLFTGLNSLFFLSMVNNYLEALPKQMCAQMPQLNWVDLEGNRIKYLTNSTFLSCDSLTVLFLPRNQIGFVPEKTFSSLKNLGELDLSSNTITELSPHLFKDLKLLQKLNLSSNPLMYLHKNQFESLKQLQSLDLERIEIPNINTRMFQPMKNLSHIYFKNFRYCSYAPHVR
# RXFP1 [9] = target: T3, RXFP1 (Rattus norvegicus, UniProt Q6R6I6); assay: Single-cell FRET cAMP; settings: rat cardiac fibroblasts, forskolin 1 μM, without PTX
# T3 sequence (Q6R6I6 1-758): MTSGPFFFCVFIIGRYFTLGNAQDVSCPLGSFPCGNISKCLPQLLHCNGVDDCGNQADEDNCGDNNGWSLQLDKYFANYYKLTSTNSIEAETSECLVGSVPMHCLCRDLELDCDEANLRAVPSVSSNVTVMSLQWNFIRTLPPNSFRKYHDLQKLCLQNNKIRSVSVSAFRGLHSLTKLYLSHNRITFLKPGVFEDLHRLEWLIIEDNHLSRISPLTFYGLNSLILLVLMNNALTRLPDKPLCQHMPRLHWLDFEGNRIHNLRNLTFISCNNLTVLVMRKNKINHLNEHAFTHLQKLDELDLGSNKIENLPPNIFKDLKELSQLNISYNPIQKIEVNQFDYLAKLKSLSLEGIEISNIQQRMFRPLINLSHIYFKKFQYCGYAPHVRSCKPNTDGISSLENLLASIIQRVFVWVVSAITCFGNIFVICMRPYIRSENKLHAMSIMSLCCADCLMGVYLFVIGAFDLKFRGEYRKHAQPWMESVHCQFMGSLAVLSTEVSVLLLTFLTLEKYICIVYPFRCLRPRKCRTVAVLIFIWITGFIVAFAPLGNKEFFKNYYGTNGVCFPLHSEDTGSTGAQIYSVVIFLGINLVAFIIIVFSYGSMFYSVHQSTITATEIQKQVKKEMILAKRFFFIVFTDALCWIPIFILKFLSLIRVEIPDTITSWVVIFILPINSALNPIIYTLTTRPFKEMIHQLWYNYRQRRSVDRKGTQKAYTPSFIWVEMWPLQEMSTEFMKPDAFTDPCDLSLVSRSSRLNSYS
substance,measurement,setting,value
Relaxin,association of AC2 with RXFP1 / stimulatory sub-complex,[1]; relaxin 10 nM,reduces the association between RXFP1 and PDE4D3 or AC2
same,association of AC2 with RXFP1 / stimulatory sub-complex,[1]; relaxin 10 fM,not 10 fM
same,association of PDE4D3 with RXFP1 / regulatory sub-complex,[2]; relaxin 10 nM,reduces the association between RXFP1 and PDE4D3 or AC2
same,association of PDE4D3 with RXFP1 / regulatory sub-complex,[2]; relaxin 10 fM,not 10 fM
same,cAMP response,RXFP1 [3],no detectable cAMP response
same,response to sub-picomolar relaxin,"tRXFP1-703; tRXFP1-703 (truncated following helix 8), glEpac2",remained responsive to stimulation with sub-picomolar concentrations of relaxin
same,maximal cAMP response to relaxin,"tRXFP1-703; tRXFP1-703, glEpac2",reduced following truncation
same,"cAMP response to sub-picomolar relaxin, effect of mutation",tRXFP1-747,no effect
same,maximal cAMP response to relaxin,tRXFP1-747,reduced through tRXFP1-747
same,"cAMP response to sub-picomolar relaxin, effect of mutation",RXFP1 S755A,no effect
same,Relaxin EC50 1,RXFP1 [4],140.34±20.73 aM
same,Relaxin EC50 1,"RXFP1 [5]; first phase, biphasic fit, 5 min AUC, pmEpac2, HEK293-RXFP1, mean±s.e.m.",10.93±0.92 aM
same,saturation of pmEpac2 sensor / response relative to FIP,"RXFP1 [5]; maximal relaxin 100 nM versus FIP (10 μM forskolin, 100 μM IBMX, 100 nM PGE1)",did not saturate the pmEpac2 sensor
same,EC50,RXFP2 [6],57.7 ± 6.94 nM
same,cellular response to sub-picomolar peptide,"RXFP2 [7]; RXFP2, pmEpac2",no evidence of a cellular response
same,EC50,"RXFP2 [7]; read-out: Relaxin EC50 2, pmEpac2, HEK293-RXFP2, 5 min AUC, mean±s.e.m.",18.1 ± 3.84 nM
same,cAMP response to relaxin,RXFP1 [8],"significant concentration-dependent increase in cAMP, which was maintained within the classical relaxin concentration range"
same,cAMP response,HEK293 cells,no detectable cAMP response
same,biphasic cAMP response,RXFP1/2,not RXFP1/2
same,cAMP accumulation at sub-picomolar concentrations,"RXFP2/1; RXFP2/1, pmEpac2",increased cAMP accumulation at sub-picomolar concentrations
same,Relaxin EC50 1,"RXFP2/1; first phase, pmEpac2, RXFP2/1 (RXFP2-ectodomain, RXFP1-transmembrane/C-terminus), mean±s.e.m.",7.86±1.30 aM
same,EC50,"RXFP2/1; read-out: Relaxin EC50 2, second phase, pmEpac2, RXFP2/1, mean±s.e.m.",0.33 ± 0.08 nM
same,biphasic cAMP response,"RXFP2/1; relaxin 10 aM–100 μM, RXFP2/1, pmEpac2",a biphasic response was evident
same,cAMP response to sub-picomolar relaxin,RXFP1 [9],"significant increase in cAMP, which then declined within the classical concentration range"
